Laboratory results reported in article PMC7016952, “Characterization of the Menin-MLL Interaction as Therapeutic Cancer Target” (Cancers, 2020).

Columns and labels:
[1] = cited from earlier work
CYP 3A4 = CYP 3A4 (Homo sapiens, UniProt P08684); details: cited from earlier work
[2] = tested on: MEIS1, MNDA and CD11b expression in MV4;11 and MOLM-13 xenografts; assay: Ex vivo gene expression in MV4;11 and MOLM-13 xenografts; set-up: species or system mice; details: 17 (MV4;11) or 11 (MOLM-13) days of treatment
Method: (§1) Total RNA was isolated using RNeasy-Plus Mini kit (Qiagen, Hilden, Germany). RNA (1 μg) was reverse transcribed using SuperScript III First-Strand Synthesis SuperMix (Life Technologies) and the generated cDNA was analyzed with commercial primers (Supplementary Materials Table S1) by qRT-PCR using TaqMan Fast Advanced Master Mix (Life Technologies). For the RNA-seq study, ZR-75-1, BT474, PANC-1, MiaPaCa-2, 22RV1, JMSU-1, DLD-1, SW1463, LoVo and G401 cells were treated with 5 µM BAY-155 or DMSO for 48 h prior to RNA extraction. After 48 h of 5 µM BAY-155 or DMSO treatment, MCF7, VCaP and LNCaP cells were stimulated for further 12 h with 0.1 nM of E2 (ß-Estradiol) or 1 nM R1881, respectively. MCF7, VCaP and LNCaP cells were cultured in starvation medium (containing 5 µM BAY-155 or DMSO) 6 h before stimulation. RNA was isolated using RNeasy-Plus Mini kit (Qiagen). The purified RNA was used for library preparation (Illumina, San Diego, CA, USA. TruSeq Stranded mRNA Kit) and the generated libraries were sequenced (Illumina, HiSeq2500 HTv4, SR, dual-indexing, 50 cycles).
(§2) Tumors were harvested, dissociated and total RNA was extracted using the TissueLyser (Qiagen, Hilden, Germany) together with RNeasy-Plus Mini kit according to the manufacturer protocol.

[3] = tested on: ER signaling pathway genes in MCF7 tumor samples; assay: Ex vivo gene expression in MCF7 xenografts; set-up: species or system mice; details: 27 days of treatment
Method: as §1, §2

LNCaP cells = assay: RNA-seq after R1881 stimulation, LNCaP; type: cell-based
Method: as §1
RNA-seq reads were aligned to hg38 using STAR aligner. Protein-coding genes with more than 10 reads in more than three samples were used for the analysis (total samples N = 86; genes N = 13,003). DESeq2 was used to find genes differentially expressed upon treatment by the menin inhibitor in each cell line compared to DMSO or hormonal treatment (for MCF-7, LNCaP and VCaP cell lines). […] GSEA analysis was run on the pre-ranked list based on logFC in prostate (VCaP and LNCaP) and breast (MCF7) cell lines. Data are available at GEO under accession number GSE136272.

menin-MLL interaction [4] = target: T1, menin-MLL interaction (Homo sapiens, UniProt O00255); assay: TR-FRET menin-MLL binding assay; details: BAY-155 vs MI-503
T1 construct: recombinant full length, His-tagged menin
T1 sequence (O00255 1-610): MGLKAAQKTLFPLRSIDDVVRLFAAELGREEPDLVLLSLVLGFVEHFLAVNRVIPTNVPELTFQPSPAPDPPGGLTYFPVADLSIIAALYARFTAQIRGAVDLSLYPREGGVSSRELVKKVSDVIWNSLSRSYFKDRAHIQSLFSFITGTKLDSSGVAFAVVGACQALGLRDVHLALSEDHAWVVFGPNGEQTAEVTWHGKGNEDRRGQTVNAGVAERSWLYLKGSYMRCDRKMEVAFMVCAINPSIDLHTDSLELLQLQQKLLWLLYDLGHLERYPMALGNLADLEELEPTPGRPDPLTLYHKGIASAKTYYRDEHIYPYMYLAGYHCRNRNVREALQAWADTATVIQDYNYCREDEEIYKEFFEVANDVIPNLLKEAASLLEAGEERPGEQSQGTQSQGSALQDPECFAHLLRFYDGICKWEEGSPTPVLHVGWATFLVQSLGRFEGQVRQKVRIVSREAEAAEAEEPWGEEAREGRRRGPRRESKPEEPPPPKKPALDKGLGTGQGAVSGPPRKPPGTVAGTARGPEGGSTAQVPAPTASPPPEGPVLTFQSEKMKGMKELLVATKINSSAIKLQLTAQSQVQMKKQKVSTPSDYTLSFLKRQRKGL

[5] = tested on: safety pharmacology relevant proteins (GPCRs, ion channels and transporters); assay: Selectivity panel of safety pharmacology assays; details: 10 µM
MV4;11 cells = assay: Proliferation inhibition, MV4;11; type: cell-based, human; details: MV4;11
MV4;11 xenograft = MV4;11 xenograft efficacy; type: in vivo, mice
Method: Tumor cells were injected subcutaneously into the flanks of 6- to 9-week old animals. Efficacy studies in xenograft models were performed at Bayer or EPO GmbH (Berlin-Buch, Germany) using NMRI nu/nu, SCID, BALB/c Nude female mice or SCID male mice (VCaP tumors). All animal studies were conducted in accordance with the animal welfare laws and were approved by the State Office for Health and Social Affairs Berlin (LAGeSo). Experiments were run under the animal license B3600a0007. Compound treatment started at a predefined tumor size or burden or at a predefined day after cell inoculation. […] Subcutaneous tumor volumes were determined by caliper measurement.

JMSU-1 cells = assay: RNA-seq differential gene expression, JMSU-1; type: cell-based; details: JMSU-1, 5 µM, 48 h
Method: as §1
(§3) RNA-seq reads were aligned to hg38 using STAR aligner. Protein-coding genes with more than 10 reads in more than three samples were used for the analysis (total samples N = 86; genes N = 13,003). […]

CYP 2C8 = CYP 2C8 (Homo sapiens, UniProt P10632); details: cited from earlier work
menin-MLL interaction [6] = target: T1, menin-MLL interaction; set-up: method as in PMID 31253180; details: read-out: Potency IC50 Menin-MLL binding; TR-FRET; previously reported; cited from earlier work
ZR-75-1 cells = assay: RNA-seq differential gene expression, ZR-75-1; type: cell-based; details: ZR-75-1, 5 µM, 48 h
Method: as §1, §3

Chain of CYP 3A4 (P08684 whole entry): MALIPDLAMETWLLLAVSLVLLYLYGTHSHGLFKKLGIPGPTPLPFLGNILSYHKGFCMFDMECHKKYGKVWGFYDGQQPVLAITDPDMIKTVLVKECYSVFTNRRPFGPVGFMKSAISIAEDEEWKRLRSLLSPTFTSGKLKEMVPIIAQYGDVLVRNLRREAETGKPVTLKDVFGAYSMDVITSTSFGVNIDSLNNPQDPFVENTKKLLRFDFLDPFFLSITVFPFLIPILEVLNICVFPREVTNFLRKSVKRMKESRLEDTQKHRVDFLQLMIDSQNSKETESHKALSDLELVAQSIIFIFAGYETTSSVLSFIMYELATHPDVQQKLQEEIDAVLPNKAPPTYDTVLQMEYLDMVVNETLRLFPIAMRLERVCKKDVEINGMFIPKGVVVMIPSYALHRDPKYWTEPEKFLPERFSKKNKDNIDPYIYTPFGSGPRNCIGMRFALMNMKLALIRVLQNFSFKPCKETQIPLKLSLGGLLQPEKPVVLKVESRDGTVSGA
Chain of CYP 2C8 (P10632 whole entry): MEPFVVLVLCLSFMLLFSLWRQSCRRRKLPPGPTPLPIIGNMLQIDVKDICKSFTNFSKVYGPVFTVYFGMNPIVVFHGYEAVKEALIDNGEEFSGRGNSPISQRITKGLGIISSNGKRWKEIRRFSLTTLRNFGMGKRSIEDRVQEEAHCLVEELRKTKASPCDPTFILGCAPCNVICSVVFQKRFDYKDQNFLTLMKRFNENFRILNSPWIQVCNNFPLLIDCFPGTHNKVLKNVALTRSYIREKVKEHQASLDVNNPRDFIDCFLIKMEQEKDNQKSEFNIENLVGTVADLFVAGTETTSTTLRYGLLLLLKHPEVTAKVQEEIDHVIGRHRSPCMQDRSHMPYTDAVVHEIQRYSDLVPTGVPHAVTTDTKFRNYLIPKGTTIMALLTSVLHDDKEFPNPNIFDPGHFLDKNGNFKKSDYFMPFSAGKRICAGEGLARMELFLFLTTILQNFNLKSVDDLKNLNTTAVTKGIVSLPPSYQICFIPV

In the case of `Cc1c(CN2CCC3(CC2)CN(c2ncnc4sc(CC(F)(F)F)cc24)C3)ccc2c1cc(C#N)n2CC(N)=O` [BAY-155], the “CLblood (metabolic stability in rat hepatocytes, as worded in text)” value [1] is given as 18.3 mL/min/kg, the IC50 (CYP 3A4) is given as over 20 µM and the “MEIS1 expression ex vivo” value [2] is given as “concentration-dependent and significant down-regulation”. The “MNDA and CD11b expression ex vivo” value [2] was “up-regulation”, the “EGR3, GREB1 and PGR1 expression ex vivo” value [3] was “no significant effects” and the “GSEA of androgen-regulated gene sets” value (LNCaP cells) was “significant reversal of androgen-induced gene expression changes”. The “genes down-regulated by androgen stimulation that were reversed” value (LNCaP cells; 5 µM, R1881) was 141 genes, the “genes up-regulated by androgen stimulation that were reversed” value (LNCaP cells; 5 µM, R1881) was 24 genes and the “fold better inhibitory IC50 compared to MI-503” value (menin-MLL interaction [4]) was 10 fold. For the same compound, the “number of tested proteins inhibited by ≥ 50%” value [5] was 7, the “cases in which an IC50 value could be reached” value ([5]; of 77 targets) was 7/77 and the “fold improved proliferation inhibition vs MI-503” value (MV4;11 cells) was 2.8 fold. The body weight (MV4;11 xenograft; 180 mg/kg 2QD p.o.) was “no evidence of body weight loss”, the “tumor volume T/C” value (MV4;11 xenograft; 180 mg/kg 2QD p.o., regression) was under 0.02 and the tumor weights (MV4;11 xenograft; p.o.) was “clear concentration-dependent trend for reduced tumor weights”. The “number of differentially expressed genes” value (JMSU-1 cells) was 665 genes, the IC50 (CYP 2C8) was over 20 µM and the IC50 (menin-MLL interaction [6]) was 0.008 µM. For the same compound, the “number of differentially expressed genes” value (ZR-75-1 cells) was 10 genes.
